Reference: article PMC6848746 (Psychopharmacology, 2019)
Where two headings read alike, the source gives them in different places.

Assays:
5-HT2C = target: T1, 5-HT2C (Homo sapiens, UniProt P28335); test: Radioligand binding
T1 sequence (P28335 33-458): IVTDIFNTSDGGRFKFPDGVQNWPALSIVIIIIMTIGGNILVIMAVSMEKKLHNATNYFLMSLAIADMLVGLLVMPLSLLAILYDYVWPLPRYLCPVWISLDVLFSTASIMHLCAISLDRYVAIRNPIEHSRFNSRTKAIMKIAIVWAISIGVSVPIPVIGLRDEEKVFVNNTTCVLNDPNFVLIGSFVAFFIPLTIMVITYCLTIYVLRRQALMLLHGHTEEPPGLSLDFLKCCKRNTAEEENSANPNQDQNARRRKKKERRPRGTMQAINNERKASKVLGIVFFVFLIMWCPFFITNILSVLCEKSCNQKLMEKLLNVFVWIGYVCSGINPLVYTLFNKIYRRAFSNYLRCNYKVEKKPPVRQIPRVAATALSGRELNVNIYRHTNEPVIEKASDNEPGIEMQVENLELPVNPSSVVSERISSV

5-HT6 = 5-HT6 (Homo sapiens, UniProt P50406); test: Radioligand binding
5-HT receptors = test: Primary binding assay at 10 μM, 5-HT receptors; design: species or system Human
DAT [1] = target: DAT (Homo sapiens, UniProt Q01959); settings: HEK cells expressing cloned transporters, cited from earlier work; for release of preloaded [3H]DA: at 100 μM, ref Simmler et al. 2014b, Luethi et al. 2017
NET [2] = target: NET (Homo sapiens, UniProt P23975); settings: HEK cells expressing cloned transporters, cited from earlier work; for release of preloaded [3H]NE: at 100 μM, ref Simmler et al. 2014b, Luethi et al. 2017
SERT = SERT (Homo sapiens, UniProt P31645); settings: HEK cells expressing cloned transporters, cited from earlier work; for release of preloaded [3H]5-HT: at 100 μM, ref Simmler et al. 2014b, Luethi et al. 2017
DAT [3] = settings: synaptosomal uptake assay; ref Johnson et al. (1991a); cited from earlier work
rats = settings: cited from earlier work
NET [4] = test: NET-mediated release of [3H]MPP+ from rat brain synaptosomes; type: biochemical; settings: relative to SERT, synaptosomal release
NET [5] = settings: synaptosomal uptake assay; ref Johnson et al. (1991a); cited from earlier work

Sequence of DAT (Homo sapiens, UniProt Q01959) (Q01959 whole entry): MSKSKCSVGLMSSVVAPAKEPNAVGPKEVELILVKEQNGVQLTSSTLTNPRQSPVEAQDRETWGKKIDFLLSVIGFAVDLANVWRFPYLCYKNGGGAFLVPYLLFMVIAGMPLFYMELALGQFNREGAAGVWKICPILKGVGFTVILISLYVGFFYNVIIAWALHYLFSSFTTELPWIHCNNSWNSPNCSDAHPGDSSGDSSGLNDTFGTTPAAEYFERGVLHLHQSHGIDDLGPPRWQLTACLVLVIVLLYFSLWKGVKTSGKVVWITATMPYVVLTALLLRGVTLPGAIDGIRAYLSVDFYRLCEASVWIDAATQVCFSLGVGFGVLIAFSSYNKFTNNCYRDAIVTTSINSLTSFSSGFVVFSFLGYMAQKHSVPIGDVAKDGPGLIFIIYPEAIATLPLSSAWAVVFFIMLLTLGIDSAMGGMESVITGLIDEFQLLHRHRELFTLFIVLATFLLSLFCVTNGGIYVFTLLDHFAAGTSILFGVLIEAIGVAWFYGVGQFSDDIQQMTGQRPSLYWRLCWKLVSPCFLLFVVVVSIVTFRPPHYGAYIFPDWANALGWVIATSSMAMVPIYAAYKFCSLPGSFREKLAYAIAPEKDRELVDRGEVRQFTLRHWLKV
Sequence of NET (Homo sapiens, UniProt P23975) (P23975 whole entry): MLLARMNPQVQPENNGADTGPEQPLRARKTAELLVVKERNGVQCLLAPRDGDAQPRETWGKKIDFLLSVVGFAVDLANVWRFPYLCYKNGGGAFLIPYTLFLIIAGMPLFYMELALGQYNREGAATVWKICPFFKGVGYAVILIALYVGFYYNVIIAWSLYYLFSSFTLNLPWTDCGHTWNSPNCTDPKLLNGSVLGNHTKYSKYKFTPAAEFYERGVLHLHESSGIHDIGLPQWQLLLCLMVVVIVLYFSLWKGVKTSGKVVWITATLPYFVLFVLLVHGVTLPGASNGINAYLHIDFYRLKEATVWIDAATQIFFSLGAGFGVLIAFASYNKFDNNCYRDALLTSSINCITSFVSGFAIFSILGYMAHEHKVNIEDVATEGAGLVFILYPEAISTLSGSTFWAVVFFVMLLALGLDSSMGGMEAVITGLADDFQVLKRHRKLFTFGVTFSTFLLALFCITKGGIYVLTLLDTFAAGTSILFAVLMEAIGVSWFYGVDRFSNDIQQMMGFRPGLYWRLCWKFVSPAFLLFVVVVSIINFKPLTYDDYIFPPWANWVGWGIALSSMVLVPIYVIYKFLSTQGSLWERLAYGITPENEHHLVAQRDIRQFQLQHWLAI
Sequence of SERT (P31645 whole entry): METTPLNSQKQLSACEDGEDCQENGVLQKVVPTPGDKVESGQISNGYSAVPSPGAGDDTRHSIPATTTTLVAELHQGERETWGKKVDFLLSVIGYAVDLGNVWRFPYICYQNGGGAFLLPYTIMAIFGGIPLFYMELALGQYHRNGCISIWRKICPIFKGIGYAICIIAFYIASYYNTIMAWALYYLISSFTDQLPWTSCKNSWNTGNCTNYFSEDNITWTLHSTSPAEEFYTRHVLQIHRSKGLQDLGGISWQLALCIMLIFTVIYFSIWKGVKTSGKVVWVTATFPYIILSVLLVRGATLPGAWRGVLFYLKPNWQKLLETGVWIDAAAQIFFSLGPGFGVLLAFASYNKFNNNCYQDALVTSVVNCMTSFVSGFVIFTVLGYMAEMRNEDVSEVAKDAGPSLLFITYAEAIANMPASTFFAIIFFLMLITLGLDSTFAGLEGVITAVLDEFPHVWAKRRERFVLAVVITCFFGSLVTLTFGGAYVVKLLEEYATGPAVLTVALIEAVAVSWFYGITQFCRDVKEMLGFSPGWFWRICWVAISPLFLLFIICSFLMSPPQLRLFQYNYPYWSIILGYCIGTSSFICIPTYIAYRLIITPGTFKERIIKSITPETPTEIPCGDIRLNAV
Sequence of 5-HT6 (P50406 whole entry): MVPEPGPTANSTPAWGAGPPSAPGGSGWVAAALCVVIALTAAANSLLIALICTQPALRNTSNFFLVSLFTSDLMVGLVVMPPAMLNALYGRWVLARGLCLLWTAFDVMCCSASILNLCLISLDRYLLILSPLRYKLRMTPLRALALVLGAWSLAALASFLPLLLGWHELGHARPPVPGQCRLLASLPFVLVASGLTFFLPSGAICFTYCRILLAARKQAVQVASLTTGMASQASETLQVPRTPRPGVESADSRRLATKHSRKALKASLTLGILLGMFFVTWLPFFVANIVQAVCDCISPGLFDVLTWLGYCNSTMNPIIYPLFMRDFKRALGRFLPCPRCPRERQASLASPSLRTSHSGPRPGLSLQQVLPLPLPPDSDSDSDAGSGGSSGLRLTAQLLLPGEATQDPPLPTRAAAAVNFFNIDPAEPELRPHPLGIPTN

| SMILES | Ki (5-HT2C) [µM] | Ki (5-HT6) [µM] | displacement at 5-HT receptors (5-HT receptors) [%] | release of preloaded [3H]DA (DAT [1]) | EC50 (DAT [1]; read-out: release of preloaded [3H]DA EC50, ref Eshleman et al. 2017) [µM] | release of preloaded [3H]NE (NET [2]) | EC50 (NET [2]; read-out: release of preloaded [3H]NE EC50, ref Eshleman et al. 2017) [µM] | selectivity for 5-HT vs. DA release (SERT; ref Eshleman et al. 2017) | release of preloaded [3H]5-HT (SERT) | EC50 (SERT; read-out: release of preloaded [3H]5-HT EC50, ref Eshleman et al. 2017) [µM] | fold difference [3H]5-HT uptake IC50 vs [3H]DA uptake IC50 (DAT [3]) [fold] | place conditioning effect (rats; ref Gatch et al. 2016) | fold lower release potency at NET (NET [4]) [fold] | fold difference [3H]5-HT uptake IC50 vs [3H]NE uptake IC50 (NET [5]) [fold] | place conditioning effect (rats; ref Marona-Lewicka et al. 1996) |
| --- | --- | --- | --- | --- | --- | --- | --- | --- | --- | --- | --- | --- | --- | --- | --- |
| NC1Cc2cc3c(cc2C1)OCO3 [MDAI, 5,6-methylenedioxy-2-aminoindan] | > 10 | > 10 | < 50 | not affected | 24 | released | 0.57 | ~ 10 fold | released | 2.9 | 10 | conditioned place preference | – | – | – |
| NC1Cc2ccccc2C1 [2-AI, 2-aminoindan] | > 10 | > 10 | < 50 | induced the release | – | induced the release | – | – | – | – | – | – | – | – | – |
| COc1ccc2c(c1)CC(N)C2 (stereo not drawn) [5-MeO-AI, 5-methoxy-2-aminoindan] | > 10 | > 10 | – | – | – | – | – | – | – | – | – | – | 6 | – | – |
| COc1cc2c(cc1C)CC(N)C2 (stereo not drawn) [MMAI, 5-methoxy-6-methyl-2-aminoindan] | > 10 | > 10 | – | – | – | – | – | – | released | – | 93 | – | 100 | 55 | conditioned place aversion |
